Reference: patent US20260070929A1, “METHODS AND COMPOSITIONS FOR MODULATING KRAS(G12D)” (Ranok Therapeutics (Hangzhou) Co. LTD., priority 2022, published 2026)

Tests used:
[1] = system: AGS gastric carcinoma cells [heterozygous G12D]; test: Cancer cell line proliferation (CellTiter-Glo), AGS; type: cell-based; details: Homo sapiens, 72 hr treatment, read-out: AGS CTG (EC50)
Outline: (§1)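 4,000 cells/well; 72 hr pre-culture, 37° C./5% CO2. Cpd: 3-fold series, 20 μM–1.02 nM as prepared, 0.5% DMSO final; 72 hr exposure. Readout CellTiter-Glo; EC50 fit.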

[2] = system: A-427 lung carcinoma cells [heterozygous G12D]; test: Cancer cell line proliferation (CellTiter-Glo), A-427; type: cell-based; details: Homo sapiens, A-427 cells, 72 hr treatment, read-out: A427 CTG (EC50)
Outline: as §1

[3] = system: ASPC1 pancreatic adenocarcinoma cells [homozygous G12D]; test: Cancer cell line proliferation (CellTiter-Glo), ASPC1; type: cell-based; details: Homo sapiens, ASPC1, 72 h, 72 hr treatment, read-out: ASPC-1 CTG (EC50)
Outline: as §1

KRAS(G12D)/SOS1 = molecular target: T1, KRAS(G12D)/SOS1 (Homo sapiens, UniProt P01116, G12D); test: KRAS(G12D)/SOS1 homogeneous time-resolved fluorescence (HTRF) assay; type: binding; details: absence of GTP; 4° C., 3 hr
T1 construct: purchased Cisbio 63ADK000CB17PEH
Outline: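 Disruption of the KRAS(G12D)/SOS1 pairing, in the absence of GTP, was read by time-resolved FRET after a 3 hr sealed incubation at 4 °C. Test compounds spanned 20 µM down to 1.02 nM in 3-fold steps. IC50 values correspond to half-maximal inhibition.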

[4] = system: SW1990 pancreatic adenocarcinoma cells [homozygous G12D]; test: Cancer cell line proliferation (CellTiter-Glo), SW1990; type: cell-based; details: Homo sapiens, 72 hr treatment, read-out: SW1990 CTG (EC50)
Protocol: The following cancer cell lines were employed: AGS gastric carcinoma [heterozygous G12D](ATCC, CRL-1739); A-427 lung carcinoma [heterozygous G12D](ATCC, HTB-53); ASPC1 pancreatic adenocarcinoma [homozygous G12D](ATCC, CRL-1682) and SW1990 pancreatic adenocarcinoma [homozygous G12D](ATCC CRL-2172). Cell lines were cultured essentially according to ATCC recommendations.
AGS, A-427, ASPC1, SW1990, and GP2D cells were plated in 96-well tissue culture plates at 4,000 cells/well and incubated at 37° C./5% CO2 for 72 hr in 100 μl of media. 3-fold serial dilutions of each test compound were prepared ranging from 20 μM to 1.02 nM. Each cell line was then treated with test compounds at various concentrations with a final concentration of 0.5% DMSO/well, and then incubated at 37° C./5% CO2 for 72 hr. 100 µl of CellTiter-Glo® Reagent (Promega Corporation, Madison, WI) was added to each well and processed according manufacturer's protocol. Results were analyzed and EC50 values were calculated in GraphPad 7 software.

T1 sequence (P01116 1-188 isoform P01116-2 G12D): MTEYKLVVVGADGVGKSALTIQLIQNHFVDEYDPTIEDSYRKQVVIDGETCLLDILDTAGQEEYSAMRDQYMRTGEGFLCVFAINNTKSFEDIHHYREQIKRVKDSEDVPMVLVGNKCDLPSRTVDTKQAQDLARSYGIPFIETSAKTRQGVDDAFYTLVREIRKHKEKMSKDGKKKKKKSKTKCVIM

Structure (SMILES)	EC50 [1] [nM]	EC50 [2] [nM]	EC50 [3] [nM]	IC50 (KRAS(G12D)/SOS1) [nM]	EC50 [4] [nM]
CC(C)c1cc(C(=O)N2Cc3ccc(CN4CCN([C@H]5C[C@@H](COc6nc(N7CC8CCC(C7)N8)c7cnc(-c8cc(O)cc9ccccc89)c(F)c7n6)N(C)C5)CC4)cc3C2)c(O)cc1O [Compound 25]	< 100	100 to 1000	> 1000	< 100	< 100
CC(C)c1cc(C(=O)N2Cc3ccc(CN4CCN([C@H]5C[C@@H](COc6nc(N7CC8CCC(C7)N8)c7cnc(-c8cccc9ccccc89)c(F)c7n6)N(C)C5)CC4)cc3C2)c(O)cc1O [Compound 35]	100 to 1000	100 to 1000	100 to 1000	> 1000	100 to 1000
C#Cc1cccc2cccc(-c3ncc4c(N5CC6CCC(C5)N6)nc(OCC5(CN6CCN(Cc7ccc(-n8c(C(=O)NCC(F)(F)F)nnc8-c8cc(C(C)C)c(O)cc8O)cc7)CC6)CC5)nc4c3F)c12 [Compound 54]	< 100	100 to 1000	100 to 1000	< 100	< 100
C#Cc1cccc2cccc(-c3ncc4c(N5CC6CCC(C5)N6)nc(OCC5(CN6CCN(Cc7ccc(-n8c(C(=O)NC(C)C(F)(F)F)nnc8-c8cc(C(C)C)c(O)cc8O)cc7)CC6)CC5)nc4c3F)c12 (stereo not drawn) [Compound 55]	100 to 1000	100 to 1000	100 to 1000	100 to 1000	100 to 1000
CCNC(=O)c1nnc(-c2cc(C(C)C)c(O)cc2O)n1-c1ccc(CN2CCC(C(=O)N3CCN([C@H]4C[C@@H](COc5nc(N6CC7CCC(C6)N7)c6cnc(-c7cccc(C)c7C)c(F)c6n5)N(C)C4)CC3)CC2)cc1 [Compound 56]	< 100	100 to 1000	100 to 1000	> 1000	< 100
CC(C)c1cc(C(=O)N2Cc3ccc(CN4CCN([C@H]5C[C@@H](COc6nc(N7CC8CCC(C7)N8)c7cnc(-c8ccccc8C(F)(F)F)c(F)c7n6)N(C)C5)CC4)cc3C2)c(O)cc1O [Compound 58]	< 100	< 100	100 to 1000	> 1000	100 to 1000
CCNC(=O)c1nnc(-c2cc(C(C)C)c(O)cc2O)n1-c1ccc(CN2CCC(CN3CCN([C@H]4C[C@@H](COc5nc(N6CC7CCC(C6)N7)c6cnc(-c7cccc(F)c7C)c(F)c6n5)N(C)C4)CC3)CC2)cc1 [Compound 83]	< 100	< 100	–	> 1000	< 100
COc1cccc2cccc(-c3ncc4c(N5CC6CCC(C5)N6)nc(OC[C@@H]5C[C@H](N6CCN(Cc7ccc8c(c7)CN(C(=O)c7cc(C(C)C)c(O)cc7O)C8)CC6)CN5C)nc4c3F)c12 [Compound 102]	100 to 1000	100 to 1000	100 to 1000	100 to 1000	100 to 1000
CCNC(=O)c1nnc(-c2cc(C(C)C)c(O)cc2O)n1-c1ccc(CN2CCN([C@H]3C[C@@H](COc4nc(N5CC6CCC(C5)N6)c5cnc(-c6cccc7cccc(OC)c67)c(F)c5n4)N(C)C3)CC2)cc1 [Compound 103]	< 100	100 to 1000	100 to 1000	> 1000	100 to 1000
Cc1cccc2cccc(-c3ncc4c(N5CC6CCC(C5)N6)nc(OC[C@@H]5CC[C@H](CN6CCN(Cc7ccc(-n8c(C(=O)NC(C)C(F)(F)F)nnc8-c8cc(C(C)C)c(O)cc8O)cc7)CC6)N5C)nc4c3F)c12 (stereo partly drawn) [Compound 107]	100 to 1000	100 to 1000	100 to 1000	100 to 1000	100 to 1000
C#Cc1cccc2cc(O)cc(-c3ncc4c(N5CC6CCC(C5)N6)nc(OCC5(CN6CCN(CC7CCN(Cc8ccc9c(c8)CN(C(=O)c8cc(C(C)C)c(O)cc8O)C9)CC7)CC6)CC5)nc4c3F)c12 [Compound 117]	< 100	100 to 1000	100 to 1000	–	< 100
C#Cc1cccc2cc(O)cc(-c3ncc4c(N5CC6CCC(C5)N6)nc(OCC5(CN6CCC(C(=O)N7CCN(Cc8ccc(-n9c(C(=O)NC(C)C(F)(F)F)nnc9-c9cc(C(C)C)c(O)cc9O)cc8)CC7)CC6)CC5)nc4c3F)c12 (stereo not drawn) [Compound 120]	< 100	100 to 1000	100 to 1000	< 100	< 100
C#Cc1c(F)ccc2cc(O)cc(-c3ncc4c(N5CC6CCC(C5)N6)nc(OCC5(CN6CCN(C7CCN(Cc8ccc(-n9c(C(=O)NC(C)C(F)(F)F)nnc9-c9cc(C(C)C)c(O)cc9O)cc8)CC7)CC6)CC5)nc4c3F)c12 (stereo not drawn) [Compound 160]	< 100	< 100	< 100	–	< 100
C#Cc1c(F)ccc2cc(O)cc(-c3ncc4c(N5CC6CCC(C5)N6)nc(OCC5(CN6CCN(CC7CN(Cc8ccc9c(c8)CN(C(=O)c8cc(C(C)C)c(O)cc8O)C9)C7)CC6)CC5)nc4c3F)c12 [Compound 164]	< 100	–	100 to 1000	< 100	< 100
C#Cc1c(F)ccc2cc(O)cc(-c3ncc4c(N5CC6CCC(C5)N6)nc(OCC5(CN6CCN(CC7CN(Cc8ccc(-n9c(C(=O)NC(C)C(F)(F)F)nnc9-c9cc(C(C)C)c(O)cc9O)cc8)C7)CC6)CC5)nc4c3F)c12 (stereo not drawn) [Compound 165]	< 100	–	100 to 1000	< 100	< 100
C#Cc1c(F)ccc2cc(O)cc(-c3ncc4c(N5CC6CCC(C5)N6)nc(OCC5(CN6CCN(CC7CN(Cc8ccc(-n9c(C(=O)NCC(F)(F)F)nnc9-c9cc(C(C)C)c(O)cc9O)cc8)C7)CC6)CC5)nc4c3F)c12 [Compound 166]	< 100	–	< 100	< 100	< 100
C#Cc1c(F)ccc2cc(O)cc(-c3nc(OC)c4c(N5CC6CCC(C5)N6)nc(OCC5(CNCC6CN(Cc7ccc8c(c7)CN(C(=O)c7cc(C(C)C)c(O)cc7O)C8)CCO6)CC5)nc4c3F)c12 (stereo not drawn) [Compound 191]	< 100	–	–	< 100	100 to 1000
C#Cc1c(F)ccc2cc(O)cc(-c3nc(OC)c4c(N5CC6CCC(C5)N6)nc(OCC5(CN6CCOC(CNCc7ccc8c(c7)CN(C(=O)c7cc(C(C)C)c(O)cc7O)C8)C6)CC5)nc4c3F)c12 (stereo not drawn) [Compound 192]	100 to 1000	–	–	> 1000	100 to 1000
C#Cc1c(F)ccc2cc(O)cc(-c3ncc4c(N5CC6CCC(C5)N6)nc(OCC5CN(C6CN(Cc7ccc8c(c7)CN(C(=O)c7cc(C(C)C)c(O)cc7O)C8)C6)C5)nc4c3F)c12 [Compound 193]	100 to 1000	–	–	< 100	100 to 1000
C#Cc1c(F)ccc2cc(O)cc(-c3ncc4c(N5CC6CCC(C5)N6)nc(OCC5CN(CC6(CNc7ccc8c(c7)CN(C(=O)c7cc(C(C)C)c(O)cc7O)C8)CC6)C5)nc4c3F)c12 [Compound 194]	100 to 1000	–	–	< 100	100 to 1000
C#Cc1cccc2cc(O)cc(-c3ncc4c(N5CC6CCC(C5)N6)nc(OCC5(CN6CCN(CC7CCN(Cc8ccc(-n9c(C(=O)NCC)nnc9-c9cc(C(C)C)c(O)cc9O)cc8)CC7)CC6)CC5)nc4c3F)c12 [Example 2, 4-(4-{[4-({4-[(1-{[(4-{3,8-diazabicyclo[3.2.1]octan-3-yl}-7-(8-ethynyl-3-hydroxynaphthalen-1-yl)-8-fluoropyrido[4,3-d]pyrimidin-2-yl)oxy]methyl}cyclopropyl)methyl]piperazin-1-yl}methyl)piperidin-1-yl]methyl}phenyl)-5-(2,4-dihydroxy-5-isopropylphenyl)-N-ethyl-1,2,4-triazole-3-carboxamide]	< 100	< 100	< 100	–	< 100
